Data published in article PMC7404261 (2020).

Experiments:
[1] = tested on: RNA-G4 (RNA, G4) GGGAAAAGGCGCGCGGAAGGGG; test: ThT fluorescence titration; conditions: Na+ (PBS), ThT 3 µM, ODN 0-6 µM, 491 nm, fitted to 1:1 model, unit not given
[2] = tested on: ssDNA-G4-Fw (DNA, G4) CGGGAAAAGGCGCGCGGAAGGGGT; test: ThT fluorescence titration; conditions: Na+ (PBS), ThT 3 µM, ODN 0-6 µM, 491 nm, fitted to 1:1 model, unit not given

SMILES: Cc1ccc2c(c1)sc(-c1ccc(N(C)C)cc1)[n+]2C
- association constant [1]: 2.90 × 10^6
- association constant [2]: 2.72 × 10^6
